Data set [1] deals with PARG. Nature of the data set: Table 2: small molecules tested for PARG inhibition activity (relative to PIP-1). Format: biochemical.
The nature of data set [2]: Assessment of PIP-1 levels in the brain (blood-brain-barrier penetrance). It is filed as in vivo, mice. The note with it: 50 mg/kg i.p. The protocol:
As a prelude to assessment of PIP-1 in a mouse model of PD, the ability of PIP-1 to penetrate the blood-brain-barrier is first assessed. PIP-1 is injected i.p. at a dose of 50 mg/kg, and mice are sacrificed at 1 and 2 h post injection. After sacrifice, to establish the presence of PIP-1 in the brain the striatum was dissected, sonicated in perchloric acid, and centrifuged. The clarified supernatant is analyzed by HPLC. No endogenous compounds interfere with this assay for PIP-1 as no signal is detected in dissected striata from non-treated mice. As shown by FIG. 21A, the striatal penetrance of PIP-1 is at the level of 70 ng/mg of protein. […] Given this blood-brain-barrier penetrance by PIP-1, the compound is assessed in the MPTP mouse model of PD. […] PIP-1 is assessed at concentrations of 0 mg/kg, 1 mg/kg, 5 mg/kg, 10 mg/kg, and 50 mg/kg, and five mice are used in each group. After 30 days, the mice are sacrificed and the striatum dissected and analyzed by HPLC to determine the levels of dopamine and various dopamine metabolites.
Assessment of PIP-1 levels in the brain: PIP-1 was injected into mice i.p. at 50 mg/kg and were sacrificed at 1 and 2 h post injection. […] The clarified supernatant was then injected into an HPLC and the concentration of PIP-1 was determined by comparison to a standard curve. […]

The test system of data set [3] is neuronally differentiated SK-N-SH cells. Briefly: Protection from MPP+ induced toxicity in neuronally differentiated SK-N-SH cells. It is filed as cell-based. The note with it: 10 μM MPP+, 72 h, read-out: EC50 (IC50) for protection from MPP+ induced cell death. The protocol: In vivo MPTP is metabolized to its active form, the 1-methyl-4-phenylpyridinium ion (MPP^+), and MPP^+ has proven very useful in a variety of cell culture models of PD. To determine the protective effect of PIP-1 on cells subjected to MPP^+ insult, PC-12 (differentiated as above) and SK-N-SH (differentiated with retinoic acid for 12 days) cells are treated with 10 μM MPP^+ and a range of PIP-1 concentrations, and cell death is assessed by propidium iodide staining and flow cytometry. […] As shown in FIGS. 20A and 20B, PIP-1 also protects differentiated PC-12 and SK-N-SH cells from rotenone-induced toxicity as well.
Cell culture conditions: HL-60 and SK-N-SH cells are grown in RPMI 1640 media supplemented with 10% FBS and PC-12 cells are grown in RPMI 1640 media supplemented with 10% HS and 5% FBS. All cell lines are incubated at 37° C. in a 5% CO2, 95% air atmosphere. HL-60 cells are split every two to three days as needed and SK-N-SH cells are split when they reach approximately 90% confluency at a 1:6 ratio. […]
Protection of Rotenone and MPP^+ induced toxicity in PC-12 and SK-N-SH cells: SK-N-SH and PC-12 cells are neuronally differentiated as described above. […] The cells are then washed in PBS and the viability is determined by adding propidium iodide to 1 μg/mL and measuring the fluorescent intensity of each cell by flow cytometry.

For data set [4], the system named is MPTP-treated C57 Black mice. Nature of the data set: MPTP mouse model of PD, striatal monoamine levels. It is filed as in vivo. The protocol: As a prelude to assessment of PIP-1 in a mouse model of PD, the ability of PIP-1 to penetrate the blood-brain-barrier is first assessed. PIP-1 is injected i.p. at a dose of 50 mg/kg, and mice are sacrificed at 1 and 2 h post injection. After sacrifice, to establish the presence of PIP-1 in the brain the striatum was dissected, sonicated in perchloric acid, and centrifuged. The clarified supernatant is analyzed by HPLC. No endogenous compounds interfere with this assay for PIP-1 as no signal is detected in dissected striata from non-treated mice. As shown by FIG. 21A, the striatal penetrance of PIP-1 is at the level of 70 ng/mg of protein. […] Given this blood-brain-barrier penetrance by PIP-1, the compound is assessed in the MPTP mouse model of PD. Mice are given a one-time i.p. injection of PIP-1 followed 30 minutes later by an injection of MPTP (30 mg/kg). PIP-1 is assessed at concentrations of 0 mg/kg, 1 mg/kg, 5 mg/kg, 10 mg/kg, and 50 mg/kg, and five mice are used in each group. After 30 days, the mice are sacrificed and the striatum dissected and analyzed by HPLC to determine the levels of dopamine and various dopamine metabolites. […]

Read-outs that look alike come from different tables or passages of the source.

One may read the EC50 as the concentration needed to bring the measured effect to its halfway point.

As for `CN(C)c1cnn(-c2ccccc2)c(=O)c1N` [PIP-1, 4-Amino-5-dimethylamino-2-phenyl-2H-pyridazin-3-one], the Activity result in data set [1] is reported as “good”. The “Striatal penetrance of PIP-1” value in data set [2] (mice, 1 and 2 h post injection, striatum) was 70 ng/mg of protein. Further, the “PIP-1 in peripheral blood” value in data set [2] (same time points) is reported as “no detectable PIP-1”. The EC50 was 1640 nM in data set [3] and around 1800 nM in data set [3] (Homo sapiens, SK-N-SH). Further, the “Striatal levels of dopamine and dopamine metabolites (DOPAC, HVA) in MPTP-treated mice” value in data set [4] (50 mg/kg PIP-1 i.p. 30 min before MPTP 30 mg/kg, after 30 days) is listed as “very similar to the control mice”. In data set [4] (mice, without MPTP), the “Effect of PIP-1 by itself on levels of dopamine or dopamine metabolites” value was “does not appear to have any adverse effects”.
